Measurements taken from US20240391926A1, “SPIROINDOLINONE COMPOUNDS AS Kv1.3 POTASSIUM SHAKER CHANNEL BLOCKERS” (D.E. Shaw Research, LLC, priority 2021, published 2024).

What was measured:
Kv1.3 potassium channel = biological target: T1, Kv1.3 potassium channel (Homo sapiens, UniProt P22001); experiment: Kv1.3 potassium channel blocker activity, automated whole-cell patch clamp (Patchliner) in CHO-K1 cells stably expressing Kv1.3; assay type: cell-based; details: 30 nM-100 μM
T1 construct: expressed in transfected cells
T1 sequence (P22001 whole entry): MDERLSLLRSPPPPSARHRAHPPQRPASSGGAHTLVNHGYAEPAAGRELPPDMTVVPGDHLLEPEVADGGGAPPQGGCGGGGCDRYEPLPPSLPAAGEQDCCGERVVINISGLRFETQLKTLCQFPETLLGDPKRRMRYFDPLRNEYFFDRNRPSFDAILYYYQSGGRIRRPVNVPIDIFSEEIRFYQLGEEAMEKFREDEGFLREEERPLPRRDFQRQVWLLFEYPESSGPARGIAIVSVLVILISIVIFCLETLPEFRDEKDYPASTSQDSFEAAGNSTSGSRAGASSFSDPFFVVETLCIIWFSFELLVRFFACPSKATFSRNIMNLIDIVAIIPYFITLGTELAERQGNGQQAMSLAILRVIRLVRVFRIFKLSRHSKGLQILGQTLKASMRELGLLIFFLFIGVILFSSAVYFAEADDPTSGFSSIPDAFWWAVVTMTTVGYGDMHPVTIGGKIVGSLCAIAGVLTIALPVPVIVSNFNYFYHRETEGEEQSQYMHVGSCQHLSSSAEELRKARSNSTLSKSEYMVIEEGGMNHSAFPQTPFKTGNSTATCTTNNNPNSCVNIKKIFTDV
In short: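 Whole-cell automated patch clamp in CHO-K1 cells, pH 7.4 external/7.2 internal; 100 ms steps from −90 to +40 mV at 0.1 Hz, 20-pulse trains. Cumulative 30 nM–100 μM on one cell, ≤10 s per concentration; last-pulse current normalized to control, IC50 from Hill fit.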

hERG channel = biological target: T2, hERG channel (Homo sapiens, UniProt Q12809); experiment: hERG electrophysiology, automated whole-cell patch clamp (Patchliner) in CHO-K1 cells stably expressing hERG; assay type: cell-based; details: 30 nM-100 μM
T2 construct: expressed in transfected cells
T2 sequence (Q12809 whole entry): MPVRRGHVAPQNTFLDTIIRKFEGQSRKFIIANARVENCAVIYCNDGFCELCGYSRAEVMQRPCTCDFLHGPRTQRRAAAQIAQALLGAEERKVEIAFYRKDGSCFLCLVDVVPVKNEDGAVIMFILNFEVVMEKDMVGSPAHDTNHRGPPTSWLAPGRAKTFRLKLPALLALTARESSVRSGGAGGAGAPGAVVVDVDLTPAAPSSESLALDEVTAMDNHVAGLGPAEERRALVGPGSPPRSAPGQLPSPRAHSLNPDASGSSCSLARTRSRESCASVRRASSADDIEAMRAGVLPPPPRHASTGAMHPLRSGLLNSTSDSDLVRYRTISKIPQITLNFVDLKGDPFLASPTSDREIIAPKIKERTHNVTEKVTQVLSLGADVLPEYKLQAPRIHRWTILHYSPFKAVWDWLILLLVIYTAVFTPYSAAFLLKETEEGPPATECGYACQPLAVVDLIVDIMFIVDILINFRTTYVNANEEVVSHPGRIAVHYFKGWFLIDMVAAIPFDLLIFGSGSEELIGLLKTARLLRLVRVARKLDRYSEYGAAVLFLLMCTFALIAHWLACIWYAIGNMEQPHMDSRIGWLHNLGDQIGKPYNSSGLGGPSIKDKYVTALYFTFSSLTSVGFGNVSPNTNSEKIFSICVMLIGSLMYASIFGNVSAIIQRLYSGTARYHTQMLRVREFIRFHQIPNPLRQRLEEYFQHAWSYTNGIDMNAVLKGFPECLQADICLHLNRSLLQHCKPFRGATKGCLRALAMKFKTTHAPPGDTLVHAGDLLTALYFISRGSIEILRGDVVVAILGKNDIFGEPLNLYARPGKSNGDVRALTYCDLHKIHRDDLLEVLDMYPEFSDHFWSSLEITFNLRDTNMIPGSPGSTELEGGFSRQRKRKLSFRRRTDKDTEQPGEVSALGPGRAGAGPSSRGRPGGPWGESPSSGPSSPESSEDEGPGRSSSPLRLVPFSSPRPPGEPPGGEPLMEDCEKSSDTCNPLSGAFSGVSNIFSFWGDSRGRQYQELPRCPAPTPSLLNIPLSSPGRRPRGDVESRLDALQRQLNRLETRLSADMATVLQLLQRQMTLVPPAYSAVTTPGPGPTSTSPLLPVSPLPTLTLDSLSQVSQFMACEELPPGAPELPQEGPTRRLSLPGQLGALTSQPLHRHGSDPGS
Procedure: This assay is used to evaluate the disclosed compounds' inhibition activities against the hERG channel.
CHO-K1 cells stably expressing hERG were grown in Ham's F-12 Medium with glutamine containing 10% heat-inactivated FBS, 1% penicillin/streptomycin, hygromycin (100 μg/ml) and G418 (100 μg/ml). Cells were grown in culture flasks at 37° C. in a 5% CO2-humidified incubator.
The cells were bathed in an extracellular solution containing 140 mM NaCl, 4 mM KCl, 2 mM CaCl2), 1 mM MgCl2, 5 mM Glucose, 10 mM HEPES; pH adjusted to 7.4 with NaOH; 295-305 mOsm. The internal solution contained 50 mM KCl, 10 mM NaCl, 60 mM KF, 20 mM EGTA, 10 mM HEPES; pH adjusted to 7.2 with KOH; 285 mOsm. All compounds were dissolved in DMSO at 30 mM. Compound stock solutions were freshly diluted with external solution to concentrations of 30 nM, 100 nM, 300 nM, 1 μM, 3 μM, 10 μM, 30 μM and 100 μM. The highest content of DMSO (0.3%) was present in 100 μM.
The voltage protocol (see Table B) was designed to simulate voltage changes during a cardiac action potential with a 300 ms depolarization to +20 mV (analogous to the plateau phase of the cardiac action potential), a repolarization for 300 ms to −50 mV (inducing a tail current) and a final step to the holding potential of −80 mV. The pulse frequency was 0.3 Hz. Control (compound-free) and compound pulse trains for each compound concentration applied contained 70 pulses.
Whole-cell current recordings and compound application were enabled by means of an automated patch clamp platform Patchliner (Nanion). EPC 10 patch clamp amplifier (HEKA) along with Patchmaster software (HEKA Elektronik Dr. Schulze GmbH) was used for data acquisition. Data were sampled at 10 kHz without filtering. Increasing compound concentrations were applied consecutively to the same cell without washouts in between.
AUC and PEAK values were obtained with Patchmaster (HEKA Elektronik Dr. Schulze GmbH). To determine IC50 the last single pulse in the pulse train corresponding to a given compound concentration was used. Obtained AUC and PEAK values in the presence of compound were normalized to control values in the absence of compound. Using Origin (OridinLab), IC50 was derived from data fit to Hill equation: Icompound/Icontrol=(100−A)/(1+([compound]/IC50)nH)+A, where IC50 is the concentration at which current inhibition is half-maximal, [compound] is the applied compound concentration, A is the fraction of current that is not blocked and nH is the Hill coefficient.

Row | Compound | IC50 (Kv1.3 potassium channel) [nM] | IC50 (hERG channel) [nM]
1 | C[C@H]1NCC[C@@H]1C(=O)N1CC[C@]2(C1)C(=O)Nc1cc(Cl)c(Cl)cc12 (relative stereo) [Compound 40, (S)-5,6-dichloro-1′-((2S,3R)-rel-2-methylpyrrolidine-3-carbonyl)spiro[indoline-3,3′-pyrrolidin]-2-one isomer 2] | < 300 | > 100000
2 | O=C([C@H]1CNC[C@H]1O)N1CC[C@]2(C1)C(=O)Nc1cc(Cl)c(Cl)cc12 (single isomer, unassigned) [Compound 2] | < 300 | > 100000
3 | O=C(C1CCN(CCO)C1)N1CC[C@]2(C1)C(=O)Nc1cc(Cl)c(Cl)cc12 (single isomer, unassigned; isomer 1) [Compound 37] | < 300 | > 100000
4 | C[C@@H]1NCC[C@H]1C(=O)N1CC[C@]2(C1)C(=O)Nc1cc(Cl)c(Cl)cc12 (single isomer, unassigned; isomer 1) [Compound 39] | < 300 | > 100000
5 | O=C(C1C[C@@H](O)[C@H](O)C1)N1CC[C@]2(C1)C(=O)Nc1cc(Cl)c(Cl)cc12 (single isomer, unassigned; isomer 1) [Compound 105] | < 300 | > 100000
6 | O=C([C@@H]1CCN(CCO)C1)N1CC[C@]2(C1)C(=O)Nc1cc(Cl)c(Cl)cc12 (single isomer, unassigned; isomer 2) [Compound 38] | < 300 | > 100000
7 | NCC(=O)N1CC[C@]2(C1)C(=O)Nc1cc(Cl)c(Cl)cc12 [Compound 5, (S)-5,6-dichloro-1′-glycylspiro[indoline-3,3′-pyrrolidin]-2-one] | < 1000 | > 30000
8 | NCCC(=O)N1CC[C@]2(C1)C(=O)Nc1cc(Cl)c(Cl)cc12 [Compound 9, (S)-1′-(3-aminopropanoyl)-5,6-dichlorospiro[indoline-3,3′-pyrrolidin]-2-one] | < 1000 | > 100000
9 | C[C@@H](O)C(=O)N1CC[C@]2(C1)C(=O)Nc1cc(Cl)c(Cl)cc12 [Compound 13, (S)-5,6-dichloro-1′-((R)-2-hydroxypropanoyl)spiro[indoline-3,3′-pyrrolidin]-2-one] | < 1000 | > 100000
10 | Nc1cnc(N2CC[C@]3(C2)C(=O)Nc2cc(Cl)c(Cl)cc23)cn1 [Compound 144, (3S)-1′-(5-aminopyrazin-2-yl)-5,6-dichloro-1H-spiro[indole-3,3′-pyrrolidin]-2-one] | < 1000 | –
11 | O=C1Nc2cc(Cl)c(Cl)cc2[C@]12CCN(c1cn[nH]n1)C2 [Compound 146, (S)-5,6-dichloro-1′-(1H-1,2,3-triazol-4-yl)spiro[indoline-3,3′-pyrrolidin]-2-one] | < 3000 | –
12 | COCC(=O)N1CC[C@]2(C1)C(=O)Nc1cc(Cl)c(Cl)cc12 [Compound 147, (S)-5,6-dichloro-1′-(2-methoxyacetyl)spiro[indoline-3,3′-pyrrolidin]-2-one] | < 1000 | –
13 | O=C1Nc2cc(Cl)c(Cl)cc2[C@]12CCN(c1cnccn1)C2 [Compound 149, (S)-5,6-dichloro-1′-(pyrazin-2-yl)spiro[indoline-3,3′-pyrrolidin]-2-one] | < 3000 | –
14 | O=C([C@@H](O)CO)N1CC[C@]2(C1)C(=O)Nc1cc(Cl)c(Cl)cc12 [Compound 157, (S)-5,6-dichloro-1′-((S)-2,3-dihydroxypropanoyl)spiro[indoline-3,3′-pyrrolidin]-2-one] | < 1000 | –
15 | O=C(C1CC1O)N1CC[C@]2(C1)C(=O)Nc1cc(Cl)c(Cl)cc12 (stereo partly drawn) [Compound 158, (3S)-5,6-dichloro-1′-(2-hydroxycyclopropane-1-carbonyl)spiro[indoline-3,3′-pyrrolidin]-2-one] | < 3000 | –
16 | O=C([C@H](O)CO)N1CC[C@]2(C1)C(=O)Nc1cc(Cl)c(Cl)cc12 [Compound 159, (S)-5,6-dichloro-1′-((R)-2,3-dihydroxypropanoyl)spiro[indoline-3,3′-pyrrolidin]-2-one] | < 3000 | –

Second part, led by results:

Row | IC50 (Kv1.3 potassium channel) [nM] | Compound | IC50 (hERG channel) [nM]
17 | < 1000 | O=C([C@H]1CC[C@](O)(CO)C1)N1CC[C@]2(C1)C(=O)Nc1cc(Cl)c(Cl)cc12 (relative stereo) [Compound 95, (S)-5,6-dichloro-1′-((1R,3S)-rel-3-hydroxy-3-(hydroxymethyl)cyclopentane-1-carbonyl)spiro[indoline-3,3′-pyrrolidin]-2-one isomer 1] | > 100000
18 | < 1000 | O=C([C@H]1CC[C@@](O)(CO)C1)N1CC[C@]2(C1)C(=O)Nc1cc(Cl)c(Cl)cc12 (relative stereo) [Compound 97, (S)-5,6-dichloro-1′-((1R,3R)-rel-3-hydroxy-3-(hydroxymethyl)cyclopentane-1-carbonyl)spiro[indoline-3,3′-pyrrolidin]-2-one isomer 1] | > 100000
19 | < 100 | O=C([C@@H]1CNC[C@H]1O)N1CC[C@]2(C1)C(=O)Nc1cc(Cl)c(Cl)cc12 (single isomer, unassigned) [Compound 3] | > 100000
20 | < 300 | O=C(N1CC[C@]2(C1)C(=O)Nc1cc(Cl)c(Cl)cc12)C1(F)CCNC1 (single isomer, unassigned; isomer 1) [Compound 29] | > 3000
21 | < 1000 | O=C([C@H]1CC[C@H](O)C1)N1CC[C@]2(C1)C(=O)Nc1cc(Cl)c(Cl)cc12 (single isomer, unassigned; isomer 1) [Compound 63] | > 30000
22 | < 300 | O=C([C@@H]1CC[C@@H](O)[C@H](O)C1)N1CC[C@]2(C1)C(=O)Nc1cc(Cl)c(Cl)cc12 (single isomer, unassigned; isomer 2) [Compound 104] | > 100000
23 | < 1000 | O=C(CO)N1CC[C@]2(C1)C(=O)Nc1cc(Cl)c(Cl)cc12 [Compound 6, (S)-5,6-dichloro-1′-(2-hydroxyacetyl)spiro[indoline-3,3′-pyrrolidin]-2-one] | > 100000
24 | < 1000 | O=C(C1CNC1)N1CC[C@]2(C1)C(=O)Nc1cc(Cl)c(Cl)cc12 [Compound 8, (S)-1′-(azetidine-3-carbonyl)-5,6-dichlorospiro[indoline-3,3′-pyrrolidin]-2-one] | > 100000
25 | < 300 | O=C([C@@H]1CCNC1)N1CC[C@]2(C1)C(=O)Nc1cc(Cl)c(Cl)cc12 [Compound 14, (S)-5,6-dichloro-1′-((R)-pyrrolidine-3-carbonyl)spiro[indoline-3,3′-pyrrolidin]-2-one] | > 100000
26 | < 1000 | O=C1Nc2cc(Cl)c(Cl)cc2[C@]12CCN(c1c[nH]c(=O)cn1)C2 [Compound 145, (S)-5,6-dichloro-1′-(5-oxo-4,5-dihydropyrazin-2-yl)spiro[indoline-3,3′-pyrrolidin]-2-one] | –
27 | < 3000 | Nc1cc(N2CC[C@]3(C2)C(=O)Nc2cc(Cl)c(Cl)cc23)ncn1 [Compound 148, (S)-1′-(6-aminopyrimidin-4-yl)-5,6-dichlorospiro[indoline-3,3′-pyrrolidin]-2-one] | –
28 | < 1000 | CC(=O)N1CC[C@]2(C1)C(=O)Nc1cc(Cl)c(Cl)cc12 [Compound 152, (S)-1′-acetyl-5,6-dichlorospiro[indoline-3,3′-pyrrolidin]-2-one] | –
29 | < 1000 | O=C(CCO)N1CC[C@]2(C1)C(=O)Nc1cc(Cl)c(Cl)cc12 [Compound 156, (S)-5,6-dichloro-1′-(3-hydroxypropanoyl)spiro[indoline-3,3′-pyrrolidin]-2-one] | –
